Measurements from PubChem BioAssay (NCI).
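Following 48 hours of exposure in 96-well plates, responses at five concentrations were used to interpolate endpoints linearly. Here, GI50 denotes the concentration required for 50% inhibition of growth. At the TGI there is no net growth.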

What was measured:
Test in all cases: NCI-60 cell line screen, 48 h
UO-31 renal = test system: UO-31 renal
KM12 colon = test system: KM12 colon
TK-10 renal = test system: TK-10 renal
CCRF-CEM leukemia = test system: CCRF-CEM leukemia
786-0 renal = test system: 786-0 renal
OVCAR-4 ovarian = test system: OVCAR-4 ovarian
SK-MEL-5 melanoma = test system: SK-MEL-5 melanoma
M14 melanoma = test system: M14 melanoma
NCI-H460 lung = test system: NCI-H460 lung
HOP-92 NSCLC = test system: HOP-92 NSCLC

| SMILES | TGI (UO-31 renal) | TGI (KM12 colon) | TGI (TK-10 renal) | TGI (CCRF-CEM leukemia) | TGI (786-0 renal) | TGI (OVCAR-4 ovarian) | TGI (SK-MEL-5 melanoma) | TGI (M14 melanoma) | TGI (NCI-H460 lung) | TGI (HOP-92 NSCLC) | GI50 (UO-31 renal) | GI50 (KM12 colon) | GI50 (TK-10 renal) | GI50 (CCRF-CEM leukemia) | GI50 (786-0 renal) | GI50 (OVCAR-4 ovarian) | GI50 (SK-MEL-5 melanoma) | GI50 (M14 melanoma) | GI50 (NCI-H460 lung) | GI50 (HOP-92 NSCLC) |
| --- | --- | --- | --- | --- | --- | --- | --- | --- | --- | --- | --- | --- | --- | --- | --- | --- | --- | --- | --- | --- |
| O=C1C(SCCO)=C(SCCO)C(=O)c2ccccc21 | 2.57 µM | 3.76 µM | 3.39 µM | 4.8 µM | 3.91 µM | 0.671 µM | 0.653 µM | 2.5 µM | 3.49 µM | 2.42 µM |  |  |  |  |  |  |  |  |  |  |
| CCN(CC)CC(=O)N1CCc2c([nH]c3ccccc23)C1c1cccnc1 (stereo not given) | > 100 µM | > 100 µM | > 100 µM | > 100 µM | > 100 µM | > 100 µM | > 100 µM | > 100 µM | > 100 µM | > 100 µM |  |  |  |  |  |  |  |  |  |  |
| CC1(C)N=C(N)N=C(N)N1c1ccc(OCC(=O)Nc2ccccc2)c(Cl)c1 | > 100 µM | > 100 µM | > 100 µM | > 100 µM | > 100 µM | > 100 µM | > 100 µM | > 100 µM | > 100 µM | > 100 µM | > 100 µM | 0.842 µM | 32.4 µM | 2.17 µM | 11.1 µM | 15.8 µM | 1.08 µM | 13.8 µM | 0.0748 µM | 68.9 µM |
| CCN(CC)CCNC(=O)c1cn2ncnc(Oc3ccc(NC(=O)Nc4ccc(Cl)c(C(F)(F)F)c4)c(F)c3)c2c1C | 3.63 µM | 3.08 µM | 4.04 µM | 4.29 µM | 3.69 µM | 3.36 µM | 3.15 µM | 3.24 µM | 3.87 µM | 3.56 µM | 2.1 µM | 1.57 µM | 2.38 µM | 1.41 µM | 1.95 µM | 1.74 µM | 1.75 µM | 1.58 µM | 1.99 µM | 1.6 µM |
| Cn1c(/C(C#N)=C/c2ccc3ccccc3c2)cc2ccccc21 | > 100 µM | > 100 µM | > 100 µM | > 100 µM | > 100 µM | > 100 µM | > 100 µM | > 100 µM | > 100 µM | > 100 µM | 0.157 µM | 0.114 µM | > 100 µM | 0.267 µM | 0.424 µM | > 100 µM | 0.455 µM | 0.104 µM | 0.201 µM | 0.0395 µM |
| CN(C)Cc1c[nH]c2c(NCCN)c3c(c(NCCN)c12)C(=O)c1ccccc1C3=O | 26 µM | 7.11 µM | 9.49 µM | 8.93 µM | 7.8 µM | 29.6 µM | 9.14 µM | 16.9 µM | 26.8 µM | 5.49 µM | 8.58 µM | 1.59 µM | 3.25 µM | 1.06 µM | 0.71 µM | 8.07 µM | 3.86 µM | 3.51 µM | 8.04 µM | 1.53 µM |
